Laboratory results: patent EP3050567B1, “COMPOUND FOR ACTIVATING AMPK AND USES THEREOF” (Energenesis Biomedical Co., Ltd., priority 2013, dated 2015)

Columns and labels:
[1] = test system: Human umbilical vein endothelial cells (HUVECs); experiment: ROS production (H2DCF-DA) under high glucose; assay type: cell-based; conditions: 30 mM glucose, 24 h
Method: Human umbilical vein endothelial cells (HUVECs) were cultured in Dulbecco's modified Eagle's medium (DMEM) containing 10% fetal bovine serum (FBS), 4 mM L-glutamine, 2 mM sodium pyruvate and 1% penicillin/streptomycin (Invitrogen GibcoBRL, Carlsbad, Calif., USA) at 37°C under 5% CO2. Cells were plated at 2×10^4 per well in black 96-well. Twenty-four hours after plating, medium was changed to fresh DMEM containing either 5.6 or 30 mM glucose and treated with indicated concentration of adenine. Twenty-four hours after treatment, the intracellular ROS was detected using H2DCF-DA. Cells were washed once with PBS and then incubated with 100 µM DCF at 37°C for 30 min. Then the fluorescence of DCF was measured using a Fluorescence Microplate Reader System at 485-nm excitation and 530-nm emission wavelengths.

LC3 = experiment: Autophagy assay (LC3-II/LC3-I western blot) in Neuro2A cells; assay type: cell-based, mouse; conditions: 24 h
Method: Effects of adenine on Amyloid β peptide were analyzed in mouse neuroblastoma cell Neuro2A. Neuro2A cells were cultured in high-glucose Dulbecco's modified Eagle's medium (DMEM) containing 10% fetal bovine serum (FBS), 4 mM L-glutamine, 2 mM sodium pyruvate and 1% penicillin/streptomycin (Invitrogen GibcoBRL, Carlsbad, Calif., USA) at 37°C under 5% CO2. Cells were plated at 3 × 10^5 per well (6-well plate). 24 h after plating, cells were transfected with human APP695 and treated with indicated concentration of adenine for 24 h followed by cell lysis and western blot analysis. Equal amounts of protein were separated by SDS-PAGE and then electroblotted on to PVDF membranes. Membranes were blocked with 3% BSA in PBS for 60 min and incubated with an anti-Aβ antibody (1:1,000, abcam), an anti-LC3 antibody (1:1,000, Cell signaling), and an anti-actin antibody (1:5,000, Cell signaling) at 4°C for 16 h followed by the corresponding secondary antibody for 1 h at room temperature (RT). Immunoreactive bands were detected by enhanced chemiluminescence and recorded using Kodakfilm. The detected signals were scanned and then quantified by using TotalLab Quant software (TotalLab).

IL-6 = experiment: LPS-induced inflammatory response in THP1 macrophages, secreted IL-6 (ELISA); assay type: cell-based, human; conditions: 50 ng LPS 6 hr
Method: (§1) Effects of adenine on inflammatory response were evaluated in human THP1 macrophage by examining protein level of intracellular COX-2 and secreted TNFα, IL-1β and IL-6. Differentiation of THP1 monocytes into macrophages was induced by 50 nM PMA for 24 hr. THP1 macrophages were further stimulated by 50 ng LPS for 6 hr in the presence of 10-600 µM of adenine or vehicle followed by cell lysis and western blot analysis. Equal amounts of protein were separated by SDS-PAGE and then electroblotted on to PVDF membranes. Membranes were blocked with 3% BSA in PBS for 60 min and incubated with an anti-COX-2 antibody (1:1,000, Cell signaling), an anti-actin antibody (1:5,000, Cell signaling) at 4° C for 16 h followed by the corresponding secondary antibody for 1 h at room temperature (RT). Immunoreactive bands were detected by enhanced chemiluminescence and recorded using Kodak film. The detected signals were scanned and then quantified using TotalLab Quant software (TotalLab). The secreted TNFα, IL-1β and IL-6 were analyzed by enzyme-linked immunosorbent assays.

AMPK = AMPK activation assay (phospho-AMPK Thr172 western blot) in 3T3 cells; assay type: cell-based, mouse; conditions: 30 min
Method: Effects of adenine on AMPK activation were evaluated based on the phosphorylation of AMPK protein upon adenine treatment. Mouse muscle cell C2C12, mouse fibroblast 3T3, human liver carcinoma cell Hep G2, human breast adenocarcinoma cell line MCF7 and human colon adenocarcinoma grade II cell line HT29, human umbilical vein endothelial cell HUVEC, Human acute monocytic leukemiacell THP1, human macrophage cell U937, murine microglia cell BV-2, and mouse neuroblastoma cell Neuro2A and dermal papilla cell were cultured in high-glucose Dulbecco's modified Eagle's medium (DMEM) containing 10% fetal bovine serum (FBS), 4 mM L-glutamine, 2 mM sodium pyruvate and 1% penicillin/streptomycin (Invitrogen GibcoBRL, Carlsbad, Calif., USA) at 37°C, under 5% CO2. Cells were plated at 3 × 10^5 per well in 6-well plates. Twenty-four hours after plating, adenine was added to the culture media as indicated. After 30 min cells were lysed and subject to western blot analysis. Equal amount of protein from each sample was separated by SDS-PAGE and then electroblotted on to PVDF membranes. Membranes were blocked with 3% BSA in PBS for 60 min and incubated with an anti-phospho-AMPK (Thr172) antibody (1:2,000, Cell signaling) or an anti-AMPK antibody (1:2,000, Cell signaling) at 4°C for 16 h followed by the corresponding secondary antibody for 1 h at room temperature (RT). Immunoreactive bands were detected by enhanced chemiluminescence and recorded using Kodak film. The detected signals were scanned and then quantified using TotalLab Quant software (TotalLab).

Hep G2 cells = experiment: Tumor growth assay, Hep G2 implanted subcutaneously; assay type: in vivo; conditions: Hep G2 implanted NOD-SCID mice, daily IP adenine 5, 20 or 50 mg/kg, 14 days post implantation, vs control mice
Method: Human liver hepatocellular carcinoma cell line Hep G2 were cultured in high-glucose Dulbecco's modified Eagle's medium (DMEM) containing 10% fetal bovine serum (FBS), 4 mM L-glutamine, 2 mM sodium pyruvate and 1% penicillin/streptomycin (Invitrogen GibcoBRL, Carlsbad, Calif., USA) at 37°C under 5% CO2. For tumor implantation, 5 × 10^6 Hep G2 cells were injected subcutaneously into 8-week-old male nonobese diabetic-severe combined immunodeficiency (NOD-SCID) mice. After implantation, the mice were daily intraperitoneally injected with 5, 20 or 50 mg/kg body weight of adenine and the tumor size was monitored every 3 days.

TNFα = experiment: LPS-induced inflammatory response in THP1 macrophages, secreted TNFα (ELISA); assay type: cell-based, human; conditions: 50 ng LPS 6 hr
Method: as §1

## Nc1ncnc2nc[nH]c12 [Adenine, adenine]
[1]; adenine 10 microM
  ROS production (% of 5.6 mM glucose): 211 ± 4.3 % of 5.6 mM glucose
[1]; adenine 100 microM
  ROS production (% of 5.6 mM glucose): 116 ± 1.7 % of 5.6 mM glucose
[1]; adenine 200 microM
  ROS production (% of 5.6 mM glucose): 38.1 ± 2.9 % of 5.6 mM glucose
[1]; adenine 600 microM
  ROS production (% of 5.6 mM glucose): 21.7 ± 3.1 % of 5.6 mM glucose
[1]; adenine 1200 microM
  ROS production (% of 5.6 mM glucose): 22.4 ± 2.5 % of 5.6 mM glucose
LC3; adenine 10 microM
  LC3-II/LC3-I ratio (relative to control): 1.2 ± 0.1 relative to control
LC3; adenine 20 microM
  LC3-II/LC3-I ratio (relative to control): 1.8 ± 0.3 relative to control
LC3; adenine 30 microM
  LC3-II/LC3-I ratio (relative to control): 2.8 ± 0.2 relative to control
LC3; adenine 40 microM
  LC3-II/LC3-I ratio (relative to control): 2.9 ± 0.2 relative to control
LC3; adenine 50 microM
  LC3-II/LC3-I ratio (relative to control): 3.2 ± 0.3 relative to control
IL-6; adenine 10 microM
  IL-6 (% to control): 88±6.3 % to control
IL-6; adenine 100 microM
  IL-6 (% to control): 21±7.8 % to control
IL-6; adenine 600 microM
  IL-6 (% to control): 14±6.2 % to control
AMPK; adenine 1 microM
  AMPK activation (fold to control): 1.1 fold to control
AMPK; adenine 10 microM
  AMPK activation (fold to control): 1.5 fold to control
AMPK; adenine 100 microM
  AMPK activation (fold to control): 2.9 fold to control
AMPK; adenine 200 microM
  AMPK activation (fold to control): 4.0 fold to control
AMPK; adenine 600 microM
  AMPK activation (fold to control): 4.2 fold to control
Hep G2 cells
  growth of tumor: significantly retarded
TNFα; adenine 10 microM
  TNFα (% to control): 85±9.1 % to control
TNFα; adenine 100 microM
  TNFα (% to control): 41±2.6 % to control
TNFα; adenine 600 microM
  TNFα (% to control): 23±1.8 % to control
